Assay results reported in publication PMC3973950, “Synthesis of 5-arylidine amino-1,3,4-thiadiazol-2-[(N-substituted benzyol)]sulphonamides endowed with potent antioxidants and anticancer activity induces growth inhibition in HEK293, BT474 and NCI-H226 cells” (Medicinal Chemistry Research, 2013).

Columns and labels:
[1] = In vitro cytotoxicity by MTT assay, HEK 293; type: cell-based, human; conditions: human, HEK 293 cells, read-out: % cytotoxicity (100 − % cell survival) of HEK 293 cell line
Procedure, shortened: (§1)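 Cells seeded at ~10,000/well in RPMI-1640 with 10 % newborn calf serum, grown 24 h, then exposed to compounds for 72 h at 37 °C, 5 % CO2. Viability read by MTT (4 h), formazan dissolved in propanol, absorbance at 490 nm.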

[2] = test system: BT474 (breast cancer cell line); assay: In vitro cytotoxicity by MTT assay, BT474; type: cell-based; conditions: Homo sapiens, 72 h, read-out: % cytotoxicity (100 − % cell survival) of BT474 cell line; for cytotoxicity at 0.005 µM: BT-474, 0.005 μM; for cytotoxicity at 0.015 µM: BT-474, 0.015 μM; for cytotoxicity at 0.045 µM: BT-474, 0.045 μM; for cytotoxicity at 0.13 µM: BT-474, 0.13 μM; for cytotoxicity at 0.41 µM: BT-474, 0.41 μM; for cytotoxicity at 1.23 µM: BT-474, 1.23 μM; for cytotoxicity at 3.7 µM: BT-474, 3.7 μM; for cytotoxicity at 11.11 µM: BT-474, 11.11 μM; for cytotoxicity at 33.33 µM: BT-474, 33.33 μM; for cytotoxicity at 100 µM: BT-474, 100 μM
Procedure, shortened: as §1

[3] = In vitro cytotoxicity by MTT assay, NCI-H226; type: cell-based; conditions: human, NCI-H226 lung cancer cells, 0.015 μM, read-out: % Cytotoxicity (100 − % cell survival) of NCI-H226 cell line
Procedure, shortened: as §1

[4] = test system: NCI-H226 (lung cancer cell line); assay: In vitro cytotoxicity by MTT assay, NCI-H226; type: cell-based; conditions: Homo sapiens, 72 h, read-out: % Cytotoxicity (100 − % cell survival) of NCI-H226 cell line; for cytotoxicity at 0.005 µM: NCI-H226, 0.005 μM; for cytotoxicity at 0.045 µM: NCI-H226, 0.045 μM; for cytotoxicity at 0.13 µM: NCI-H226, 0.13 μM; for cytotoxicity at 0.41 µM: NCI-H226, 0.41 μM; for cytotoxicity at 1.23 µM: NCI-H226, 1.23 μM; for cytotoxicity at 3.7 µM: NCI-H226, 3.7 μM; for cytotoxicity at 11.11 µM: NCI-H226, 11.11 μM; for cytotoxicity at 33.33 µM: NCI-H226, 33.33 μM; for cytotoxicity at 100 µM: NCI-H226, 100 μM
Procedure, shortened: as §1

SMILES | cytotoxicity at 72 h, 0.005 µM [1] [%] | cytotoxicity at 72 h, 0.015 µM [1] [%] | cytotoxicity at 72 h, 0.045 µM [1] [%] | cytotoxicity at 72 h, 0.13 µM [1] [%] | cytotoxicity at 72 h, 0.41 µM [1] [%] | cytotoxicity at 72 h, 1.23 µM [1] [%] | cytotoxicity at 72 h, 3.7 µM [1] [%] | cytotoxicity at 72 h, 11.11 µM [1] [%] | cytotoxicity at 72 h, 33.33 µM [1] [%] | cytotoxicity at 72 h, 100 µM [1] [%] | cytotoxicity at 0.005 µM [2] [%] | cytotoxicity at 0.015 µM [2] [%] | cytotoxicity at 0.045 µM [2] [%] | cytotoxicity at 0.13 µM [2] [%] | cytotoxicity at 0.41 µM [2] [%] | cytotoxicity at 1.23 µM [2] [%] | cytotoxicity at 3.7 µM [2] [%] | cytotoxicity at 11.11 µM [2] [%] | cytotoxicity at 33.33 µM [2] [%] | cytotoxicity at 100 µM [2] [%] | also measured
CC(=O)Nc1ccc(S(=O)(=O)Nc2nnc(S(=O)(=O)NC(=O)c3ccccc3)s2)cc1 [Compound 6a] | 26.5 | 26.8 | 28.2 | 29.9 | 30.1 | 32.2 | 33.6 | 35 | 35.2 | 35.4 | 26 | 27.2 | 28 | 28.6 | 29.8 | 30.4 | 30.9 | 31.3 | 32.1 | 32.7 | cytotoxicity at 72 h, 0.015 µM [3]: 31.6%; cytotoxicity at 0.005 µM [4]: 30.5%; cytotoxicity at 0.045 µM [4]: 32.2%; cytotoxicity at 0.13 µM [4]: 32.9%; cytotoxicity at 0.41 µM [4]: 33.6%; cytotoxicity at 1.23 µM [4]: 35.6%; cytotoxicity at 3.7 µM [4]: 36%; cytotoxicity at 11.11 µM [4]: 38.2%; cytotoxicity at 33.33 µM [4]: 38.9%; cytotoxicity at 100 µM [4]: 40.9%
Nc1ccc(S(=O)(=O)Nc2nnc(S(=O)(=O)NC(=O)c3ccc([N+](=O)[O-])cc3)s2)cc1 [Compound 7e] | 26.9 | 29 | 30.2 | 32.1 | 34.7 | 35.5 | 36.4 | 38.1 | 38.8 | 39.8 | 43.9 | 44.2 | 45.4 | 46.3 | 47.1 | 47.6 | 48.5 | 49.1 | 50.4 | 51.2 | cytotoxicity at 72 h, 0.015 µM [3]: 30%; cytotoxicity at 0.005 µM [4]: 29%; cytotoxicity at 0.045 µM [4]: 30.5%; cytotoxicity at 0.13 µM [4]: 31.8%; cytotoxicity at 0.41 µM [4]: 33.5%; cytotoxicity at 1.23 µM [4]: 34.5%; cytotoxicity at 3.7 µM [4]: 34.9%; cytotoxicity at 11.11 µM [4]: 35.5%; cytotoxicity at 33.33 µM [4]: 35.8%; cytotoxicity at 100 µM [4]: 36%
Nc1ccc(S(=O)(=O)Nc2nnc(S(=O)(=O)NC(=O)c3ccc(Cl)cc3)s2)cc1 [Compound 7g] | 29.1 | 31.2 | 33.3 | 35.1 | 35.9 | 36.5 | 37.2 | 38.1 | 40.3 | 42.9 | 27.3 | 28.4 | 30 | 31.3 | 32.7 | 33.2 | 34.7 | 37.7 | 38.5 | 40.1 | cytotoxicity at 72 h, 0.015 µM [3]: 32.8%; cytotoxicity at 0.005 µM [4]: 30.7%; cytotoxicity at 0.045 µM [4]: 33.6%; cytotoxicity at 0.13 µM [4]: 35.3%; cytotoxicity at 0.41 µM [4]: 35.7%; cytotoxicity at 1.23 µM [4]: 36.1%; cytotoxicity at 3.7 µM [4]: 36.3%; cytotoxicity at 11.11 µM [4]: 37.1%; cytotoxicity at 33.33 µM [4]: 38.7%; cytotoxicity at 100 µM [4]: 39%
